# In ChEMBL document CHEMBL4715814, “Design, synthesis and biological activity evaluation of novel 4-subtituted 2-naphthamide derivatives as AcrB inhibitors” (2018):
# Calls of active or inactive are those of the source. No cut-off for these calls is given here. Peptide text beside a SMILES is read from it. * marks the point of attachment. βNA = c1ccc2cc(N*)ccc2c1
# What was measured:
# [1] = tested on: Escherichia coli; assay: Potentiation of erythromycin-induced antibacterial activity against wild type Escherichia coli BW25113 assessed as erythromycin MIC at 256 ug/ml incubated for 18 hrs under aerobic condition by checkerboard titration assay (reference value: 128 ug/ml); type: functional; conditions: dose 256 µg/ml
# [2] = tested on: Escherichia coli; assay: Antibacterial activity against wild type Escherichia coli BW25113 assessed as inhibition of bacterial growth at 256 ug/ml after 18 hrs by microtitre broth dilution assay; type: functional, organism-based; conditions: dose 256.0 µg/ml
# [3] = tested on: Escherichia coli; assay: Potentiation of erythromycin-induced antibacterial activity against wild type Escherichia coli BW25113 assessed as erythromycin MIC at 128 ug/ml incubated for 18 hrs under aerobic condition by checkerboard titration assay (reference value: 128 ug/ml); type: functional; conditions: dose 128 µg/ml
# [4] = tested on: Escherichia coli; assay: Potentiation of TPP-induced antibacterial activity against wild type Escherichia coli BW25113 assessed as TPP MIC at 256 ug/ml incubated for 18 hrs under aerobic condition by checkerboard titration assay (reference value: 1024 ug/ml); type: functional; conditions: dose 256 µg/ml
# [5] = tested on: Escherichia coli; assay: Potentiation of TPP-induced antibacterial activity against wild type Escherichia coli BW25113 assessed as TPP MIC at 128 ug/ml incubated for 18 hrs under aerobic condition by checkerboard titration assay (reference value: 1024 ug/ml); type: functional; conditions: dose 128 µg/ml
# [6] = tested on: Escherichia coli; assay: Potentiation of erythromycin-induced antibacterial activity against AcrB deficient Escherichia coli BW25113 assessed as erythromycin MIC at 128 ug/ml incubated for 18 hrs under aerobic condition by checkerboard titration assay (reference value: 32 ug/ml); type: functional; conditions: dose 128 µg/ml
# [7] = tested on: Escherichia coli; assay: Potentiation of chloramphenicol-induced antibacterial activity against wild type Escherichia coli BW25113 assessed as chloramphenicol MIC at 128 ug/ml incubated for 18 hrs under aerobic condition by checkerboard titration assay (reference value: 16 ug/ml); type: functional; conditions: dose 128 µg/ml
# [8] = tested on: Escherichia coli; assay: Potentiation of TPP-induced antibacterial activity against AcrB deficient Escherichia coli BW25113 assessed as TPP MIC at 128 ug/ml incubated for 18 hrs under aerobic condition by checkerboard titration assay (reference value: 256 ug/ml); type: functional; conditions: dose 128 µg/ml
# [9] = tested on: Cell membrane; assay: Disruption of inner membrane potential in wild type Escherichia coli BW25113 at 512 ug/ml preincubated for 10 mins followed by glucose stimulation and CCCP addition by DiOC2 probe based fluorimetric analysis; type: subcellular; conditions: dose 512.0 µg/ml
# [10] = tested on: Escherichia coli; assay: Potentiation of rifampicin-induced antibacterial activity against wild type Escherichia coli BW25113 assessed as rifampicin MIC at 256 ug/ml incubated for 18 hrs under aerobic condition by checkerboard titration assay (reference value: 16 ug/ml); type: functional; conditions: dose 256 µg/ml
# [11] = tested on: Escherichia coli; assay: Antibacterial activity against AcrB deficient Escherichia coli BW25113 assessed as inhibition of bacterial growth at 256 ug/ml after 18 hrs by microtitre broth dilution assay; type: functional, organism-based; conditions: dose 256.0 µg/ml
# [12] = tested on: Escherichia coli; assay: Potentiation of erythromycin-induced antibacterial activity against AcrB deficient Escherichia coli BW25113 assessed as erythromycin MIC at 256 ug/ml incubated for 18 hrs under aerobic condition by checkerboard titration assay (reference value: 32 ug/ml); type: functional; conditions: dose 256 µg/ml
# [13] = tested on: Escherichia coli; assay: Potentiation of chloramphenicol-induced antibacterial activity against AcrB deficient Escherichia coli BW25113 assessed as chloramphenicol MIC at 128 ug/ml incubated for 18 hrs under aerobic condition by checkerboard titration assay (reference value: 2 ug/ml); type: functional; conditions: dose 128 µg/ml
# [14] = tested on: Escherichia coli; assay: Potency index, ratio of A3 MIC to compound MIC for potentiation of erythromycin-induced antibacterial activity against Escherichia coli BW25113; type: functional
# [15] = tested on: Cell membrane; assay: Induction of outer membrane permeabilization in wild type Escherichia coli BW25113 assessed as increase in nitrocefin hydrolysis at 512 ug/ml measured for 30 mins in presence of CCCP by spectrophotometry analysis; type: subcellular; conditions: dose 512.0 µg/ml
# [16] = tested on: Escherichia coli; assay: Potentiation of chloramphenicol-induced antibacterial activity against wild type Escherichia coli BW25113 assessed as chloramphenicol MIC at 256 ug/ml incubated for 18 hrs under aerobic condition by checkerboard titration assay (reference value: 16 ug/ml); type: functional; conditions: dose 256 µg/ml
# [17] = tested on: Escherichia coli; assay: Potentiation of erythromycin-induced antibacterial activity against wild type Escherichia coli BW25113 assessed as fold reduction in erythromycin MIC at 128 ug/ml incubated for 18 hrs under aerobic condition by checkerboard titration assay relative to erythromycin MIC alone; type: functional; conditions: dose 128 µg/ml
# [18] = tested on: Escherichia coli; assay: Potentiation of chloramphenicol-induced antibacterial activity against AcrB deficient Escherichia coli BW25113 assessed as chloramphenicol MIC at 256 ug/ml incubated for 18 hrs under aerobic condition by checkerboard titration assay (reference value: 2 ug/ml); type: functional; conditions: dose 256 µg/ml
# [19] = tested on: Escherichia coli; assay: Potentiation of erythromycin-induced antibacterial activity against Escherichia coli BW25113 assessed as erythromycin MIC at 32 ug/ml incubated for 18 hrs under aerobic condition in presence of EDTA by checkerboard titration assay; type: functional, organism-based; conditions: dose 32.0 µg/ml
# [20] = tested on: Escherichia coli; assay: Antibacterial activity against Wild type Escherichia coli BW25113 assessed as inhibition of AcrB efflux pump by mesuring the glucose-induced nile red efflux at 200 uM preincubated with CCCP for 15 mins followed by compound addition after 15 mins nile red added and incubated for 3 hrs in shaker by fluorimetric analysis; type: functional, organism-based; conditions: time 195.0 min
# [21] = tested on: Escherichia coli; assay: Potentiation of TPP-induced antibacterial activity against AcrB deficient Escherichia coli BW25113 assessed as TPP MIC at 256 ug/ml incubated for 18 hrs under aerobic condition by checkerboard titration assay (reference value: 256 ug/ml); type: functional; conditions: dose 256 µg/ml
# [22] = tested on: Escherichia coli; assay: Potentiation of rifampicin-induced antibacterial activity against wild type Escherichia coli BW25113 assessed as rifampicin MIC at 128 ug/ml incubated for 18 hrs under aerobic condition by checkerboard titration assay (reference value: 16 ug/ml); type: functional; conditions: dose 128 µg/ml
# [23] = tested on: Escherichia coli; assay: Potentiation of chloramphenicol-induced antibacterial activity against wild type Escherichia coli BW25113 assessed as chloramphenicol MIC at 200 ug/ml incubated for 18 hrs under aerobic condition by checkerboard titration assay (reference value: 16 ug/ml); type: functional; conditions: dose 200 µg/ml
# [24] = tested on: Escherichia coli; assay: Potentiation of chloramphenicol-induced antibacterial activity against AcrB deficient Escherichia coli BW25113 assessed as chloramphenicol MIC at 200 ug/ml incubated for 18 hrs under aerobic condition by checkerboard titration assay (reference value: 2 ug/ml); type: functional; conditions: dose 200 µg/ml
# [25] = tested on: Escherichia coli; assay: Potentiation of rifampicin-induced antibacterial activity against wild type Escherichia coli BW25113 assessed as rifampicin MIC at 200 ug/ml incubated for 18 hrs under aerobic condition by checkerboard titration assay (reference value: 16 ug/ml); type: functional; conditions: dose 200 µg/ml
# [26] = tested on: Escherichia coli; assay: Potentiation of TPP-induced antibacterial activity against AcrB deficient Escherichia coli BW25113 assessed as TPP MIC at 200 ug/ml incubated for 18 hrs under aerobic condition by checkerboard titration assay (reference value: 256 ug/ml); type: functional; conditions: dose 200 µg/ml
# [27] = tested on: Escherichia coli; assay: Potentiation of erythromycin-induced antibacterial activity against AcrB deficient Escherichia coli BW25113 assessed as erythromycin MIC at 200 ug/ml incubated for 18 hrs under aerobic condition by checkerboard titration assay (reference value: 32 ug/ml); type: functional; conditions: dose 200 µg/ml
# [28] = tested on: Escherichia coli; assay: Potentiation of erythromycin-induced antibacterial activity against wild type Escherichia coli BW25113 assessed as erythromycin MIC at 200 ug/ml incubated for 18 hrs under aerobic condition by checkerboard titration assay (reference value: 128 ug/ml); type: functional; conditions: dose 200 µg/ml
# [29] = tested on: Escherichia coli; assay: Potentiation of TPP-induced antibacterial activity against wild type Escherichia coli BW25113 assessed as TPP MIC at 200 ug/ml incubated for 18 hrs under aerobic condition by checkerboard titration assay (reference value: 1024 ug/ml); type: functional; conditions: dose 200 µg/ml
compound,measurement,setting,value
CC(C)NCCOc1cc(C(N)=O)cc2ccccc12,MIC,[1],16 µg/mL
same,Activity,[2],inactive
same,MIC,[3],16 µg/mL
same,MIC,[4],1020 µg/mL
same,MIC,[5],1020 µg/mL
same,MIC,[6],32 µg/mL
same,MIC,[7],16 µg/mL
same,MIC,[8],256 µg/mL
same,Activity,[9],inactive
same,MIC,[10],16 µg/mL
same,Activity,[11],Active
same,MIC,[12],32 µg/mL
same,MIC,[13],2 µg/mL
same,Ratio,[14],16
same,Activity,[15],inactive
same,MIC,[16],16 µg/mL
same,fold change (FC),[17],8
same,MIC,[18],2 µg/mL
same,Activity,[19],Active
same,Activity,[20],Active
same,MIC,[21],256 µg/mL
same,MIC,[22],16 µg/mL
N=C(N)NCCC[C@H](NC(=O)[C@@H](N)Cc1ccccc1)C(=O)Nc1ccc2ccccc2c1 [PABETAN] (H-Phe-Arg-βNA),MIC,[23],2 µg/mL
same,MIC,[24],2 µg/mL
same,MIC,[25],2 µg/mL
same,MIC,[26],256 µg/mL
same,MIC,[27],16 µg/mL
same,MIC,[28],16 µg/mL
same,MIC,[29],256 µg/mL
